# Laboratory results taken from patent US6737383B1, “Herbicidal oxadiazolidines” (priority 1999, dated 2004).
# Experiments:
# morningglory = experiment: Test B pre/postemergence morningglory; type: in vivo, Ipomoea hederacea
# Outline: (§1)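 Herbicidal effect was estimated by eye on a ten-point control scale after plants spent twelve to sixteen days in a greenhouse following soil or foliar treatment. Foliar sprays targeted plants at one to four leaves; all doses were formulated in a non-phytotoxic solvent with surfactant.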
# cocklebur = experiment: Test B pre/postemergence cocklebur; type: in vivo, Xanthium strumarium
# Outline: as §1
# soybean = experiment: Test B pre/postemergence soybean; type: in vivo, Glycine max
# Outline: as §1
# pigweed = experiment: Test B pre/postemergence pigweed; type: in vivo, Amaranthus retroflexus
# Outline: as §1
# [1] = Postemergence, Rate 250 g/ha, scale 0 to 10, 0 no effect, 10 complete control
# [2] = Postemergence, Rate 1000 g/ha, scale 0 to 10 (0 no effect, 10 complete control)
# [3] = Preemergence, Rate 125 g/ha, scale 0 to 10 (0 no effect, 10 complete control)
# [4] = Preemergence, Rate 250 g/ha, scale of 0 to 10 where 0 is no effect and 10 is complete control
# [5] = Preemergence, Rate 500 g/ha, scale 0 (no effect) to 10 (complete control)
# [6] = Rate 125 g/ha, Postemergence, scale 0 to 10, 0 no effect, 10 complete control
# [7] = Rate 500 g/ha, Postemergence, 0 to 10 scale (0 no effect, 10 complete control)
# [8] = Rate 1000 g/ha, Preemergence, scale 0 to 10 (0 no effect, 10 complete control)
# [9] = Postemergence, Rate 62 g/ha, scale 0 to 10, 0 is no effect, 10 is complete control
# [10] = Preemergence, Rate 62 g/ha, scale 0 to 10, 0 is no effect, 10 is complete control
# [11] = Preemergence, Rate 31 g/ha, visual rating, scale 0 to 10 (0 no effect, 10 complete control)
# [12] = Rate 31 g/ha, Postemergence, scale 0 to 10
SMILES,Morningglory plant response rating (morningglory; [1]),"Plant response rating, Morningglory (morningglory; [3])","Plant response rating, Morningglory (morningglory; [4])",Morningglory plant response rating (morningglory; [5]),Morningglory plant response rating (morningglory; [6]),Cocklebur plant response rating (cocklebur; [1]),"Plant response rating, Cocklebur (cocklebur; [3])","Plant response rating, Cocklebur (cocklebur; [4])",Cocklebur plant response rating (cocklebur; [5]),Cocklebur plant response rating (cocklebur; [6]),Cocklebur plant response rating (cocklebur; [7]),Soybean plant response rating (soybean; [1]),"Plant response rating, Soybean (soybean; [3])","Plant response rating, Soybean (soybean; [4])",Soybean plant response rating (soybean; [5]),Soybean plant response rating (soybean; [6]),Redroot pigweed plant response rating (pigweed; [1]),"Plant response rating, Redroot pigweed (pigweed; [3])","Plant response rating, Redroot pigweed (pigweed; [4])",Redroot pigweed plant response rating (pigweed; [6]),other results
CCN(CC)C(=O)n1oc(=O)n(-c2ccc(F)cc2)c1=O [Compound 3],0,0,0,0,0,0,0,0,0,0,0,1,0,0,0,0,0,0,0,0,"Morningglory plant response rating (morningglory; [2]): 0; Morningglory plant response rating (morningglory; [7]): 0; Plant response rating, Morningglory (morningglory; [8]): 0; Cocklebur plant response rating (cocklebur; [2]): 2; Plant response rating, Cocklebur (cocklebur; [8]): 0; Soybean plant response rating (soybean; [2]): 2; Plant response rating, Soybean (soybean; [8]): 0; Redroot pigweed plant response rating (pigweed; [2]): 0; Redroot pigweed plant response rating (pigweed; [5]): 0; Redroot pigweed plant response rating (pigweed; [7]): 0; Plant response rating, Redroot pigweed (pigweed; [8]): 0"
COc1ccc(-n2c(=O)on(C(=O)N(c3ccc(F)cc3)C(C)C)c2=O)cc1 [Compound 5],3,0,0,0,2,5,0,0,0,5,5,5,0,0,0,5,7,6,7,7,"Morningglory plant response rating (morningglory; [2]): 9; Plant response rating, Morningglory (morningglory; [8]): 0; Cocklebur plant response rating (cocklebur; [2]): 8; Plant response rating, Cocklebur (cocklebur; [8]): 0; Soybean plant response rating (soybean; [2]): 6; Plant response rating, Soybean (soybean; [8]): 0; Redroot pigweed plant response rating (pigweed; [2]): 8; Redroot pigweed plant response rating (pigweed; [5]): 7; Redroot pigweed plant response rating (pigweed; [7]): 7; Plant response rating, Redroot pigweed (pigweed; [8]): 10"
CC(C)N(C(=O)n1oc(=O)n(-c2ccccc2OC(F)(F)F)c1=O)c1ccc(F)cc1 [Compound 14],4,0,0,0,2,0,0,0,0,0,0,2,0,0,0,2,3,0,0,2,"Morningglory plant response rating (morningglory; [9]): 1; Plant response rating, Morningglory (morningglory; [10]): 0; Morningglory plant response rating (morningglory; [7]): 6; Cocklebur plant response rating (cocklebur; [9]): 0; Plant response rating, Cocklebur (cocklebur; [10]): 0; Soybean plant response rating (soybean; [9]): 2; Plant response rating, Soybean (soybean; [10]): 0; Redroot pigweed plant response rating (pigweed; [9]): 0; Plant response rating, Redroot pigweed (pigweed; [10]): 0; Redroot pigweed plant response rating (pigweed; [5]): 6; Redroot pigweed plant response rating (pigweed; [7]): 6"
CC(C)N(C(=O)n1oc(=O)n(-c2ccc(F)cc2F)c1=O)c1ccc(F)cc1F [Compound 22],2,0,0,–,2,0,0,0,–,0,–,4,0,0,–,3,2,2,5,1,"Morningglory plant response rating (morningglory; [9]): 0; Morningglory plant response rating (morningglory; [11]): 0; Plant response rating, Morningglory (morningglory; [10]): 0; Morningglory plant response rating (morningglory; [12]): 0; Cocklebur plant response rating (cocklebur; [9]): 0; Cocklebur plant response rating (cocklebur; [11]): 0; Plant response rating, Cocklebur (cocklebur; [10]): 0; Cocklebur plant response rating (cocklebur; [12]): 0; Soybean plant response rating (soybean; [9]): 3; Soybean plant response rating (soybean; [11]): 0; Plant response rating, Soybean (soybean; [10]): 0; Redroot pigweed plant response rating (pigweed; [9]): 0; Redroot pigweed plant response rating (pigweed; [11]): 0; Plant response rating, Redroot pigweed (pigweed; [10]): 0; Redroot pigweed plant response rating (pigweed; [12]): 0"
CCN(C(=O)n1oc(=O)n(-c2ccc(F)cc2F)c1=O)C1CCCCC1 [Compound 23],10,0,0,–,8,0,0,–,–,0,–,4,0,0,–,3,0,0,0,0,"Morningglory plant response rating (morningglory; [9]): 1; Morningglory plant response rating (morningglory; [11]): 0; Plant response rating, Morningglory (morningglory; [10]): 0; Morningglory plant response rating (morningglory; [12]): 0; Cocklebur plant response rating (cocklebur; [9]): 0; Cocklebur plant response rating (cocklebur; [11]): 0; Plant response rating, Cocklebur (cocklebur; [10]): 0; Cocklebur plant response rating (cocklebur; [12]): 0; Soybean plant response rating (soybean; [9]): 3; Soybean plant response rating (soybean; [11]): 0; Plant response rating, Soybean (soybean; [10]): 0; Redroot pigweed plant response rating (pigweed; [9]): 0; Redroot pigweed plant response rating (pigweed; [11]): 0; Plant response rating, Redroot pigweed (pigweed; [10]): 0; Redroot pigweed plant response rating (pigweed; [12]): 0"
